Assay results published in patent publication US10400263B2, “Tripeptide rhodamine compound” (Kingston Uninversity Higher Education Corporation, priority 2012, dated 2019).

Experiments:
E. coli = assay: LGX staphylocoagulase fluorescence assay, E. coli strains; type: cell-based; conditions: for fluorescence over the 6 hour time period: high and low concentrations
Method: (§1) Each sample was rinsed liberally in sterile 1×PBS and varying concentrations of bacterial suspension from 10^0-10^6 were generated by serial dilution in 1×PBS. Additionally, bacterial cultures were furthermore maintained on nutrient agar to assess the coagulase status of the isolate.
(§2) To determine the effects of varying bacterial concentrations with respect to bacterial strains and concentrations of the compounds according to the present invention on staphylocoagulase activity, 100 and 50 μM solutions containing LGX were prepared in 1×PBS with the addition of 0.05 M Tris Buffer and 0.1 M NaCl to maintain a pH of 8.5 using LGX dissolved in MeOH so that final concentration of methanol was no more than 2.5%. Furthermore, an appropriate concentration (100 μM and 50 μM, respectively) of human prothrombin was added to the solution.
(§3) The plate reader used was a Fluostar Optima, and the plates used were Nunclon Surface 96 well plates. Positive controls for each experiment was a strain of MRSA, and the negative control for each experiment was a strain of E. coli, both of which were picked at random to ensure there was no bias within the data. A 1:1 ratio of the LGX solution with PBS was also assayed as “LGX alone” sample, which has been designated as a black line on the graphs below. n=3 cultures were assayed in each case.
(§4) Clinical isolates of Methicillin Resistant Staphylococcus Aureus (MRSA), Methicillin Sensitive Staphylococcus Aureus (MSSA), Staphylococcus Epidermidis, Eschericia coli and other staphyloccal species were cultured on nutrient agar prior to being grown overnight in nutrient broth under shaking conditions at 37° C. Each sample was rinsed liberally in sterile 1×PBS and varying concentrations of bacterial suspension from […] were generated by serial dilution in 1×PBS. Additionally, bacterial cultures were furthermore maintained on nutrient agar to assess the coagulase status of the isolate.
(§5) To determine the effects of varying bacterial concentrations with respect to bacterial strains and LGX concentrations on staphylocoagulase activity, 100 and 50 μM solutions of LGX were prepared in 1×PBS with the addition of 0.05 M Tris Buffer and 0.1 M NaCl to maintain a pH of 8.5 using LGX dissolved in MeOH so that final concentration of methanol was no more than 2.5%. Furthermore, an appropriate concentration (100 μM and 50 μM, respectively) of human prothrombin was added to the solution. 90 μl of LGX solution in addition to each respective bacterial isolate at varying concentrations was added to a microtitre plate. […] The plate reader used was a Fluostar Optima, and the plates used were Nunclon Surface 96 well plates.

MRSA = assay: LGX staphylocoagulase fluorescence assay, MRSA isolates; type: cell-based, Staphylococcus aureus
Method: as §1, §2, §3, §4, §5

[1] = test system: coagulase negative staphylococci; assay: LGX staphylocoagulase fluorescence assay, coagulase negative staphylococci panel; type: cell-based
Method: as §1, §2, §3

## CC(C)[C@H](NC(=O)OC(C)(C)C)C(=O)N1CCC[C@H]1C(=O)N[C@@H](CCCNC(=N)N)C(=O)Nc1ccc2c(c1)Oc1cc(NC(=O)[C@H](CCCNC(=N)N)NC(=O)[C@@H]3CCCN3C(=O)[C@@H](NC(=O)OC(C)(C)C)C(C)C)ccc1C21OC(=O)c2ccccc21 (stereo partly drawn) [LGX, Rho-(Arg-Pro-Val-NHBoc)2]
E. coli; 50 μM LGX, E. coli strains 10^6, 10^5, 10^3 and 10^2, FIG. 6
  fluorescence over the duration of the experiment: remain consistently low
E. coli; 50 μM LGX, E. coli, FIG. 13
  fluorescence over the 6 hour time period: no increase in fluorescence was observed
E. coli; 50 μM LGX, all concentrations of bacteria, E. coli
  samples above 20,000 fluorescence units after 1 hour: 0%
E. coli; 50 μM or 100 μM LGX, E. coli
  fluorescence response within 1 hour: ≤ 5000 fluorescence units
E. coli; 100 μM LGX, E. coli strains, FIG. 7
  fluorescence across the 6 hour time period: remained consistently low
E. coli; 100 μM LGX, E. coli, FIG. 14
  fluorescence over the 6 hour time period: no increase in fluorescence was observed
E. coli; E. COLI
  LGX SYSTEM: −
MRSA; 50 μM LGX, MRSA 10^2
  samples failed to reach maximum fluorescence within the 6 hour time frame: 60%
  samples reaching the maximum reading of 65,000 RFU within 4 hours: 40%
MRSA; 50 μM LGX, MRSA 10^3
  samples failed to reach maximum fluorescence within the 6 hour time frame: 40%
  samples reaching the maximum reading of 65,000 RFU within 4 hours: 60%
MRSA; 50 μM LGX, MRSA 10^5
  samples failed to reach maximum fluorescence within 5 hours: 20%
  samples reaching the maximum reading of 65,000 RFU within 2 hours: 60%
MRSA; 50 μM LGX, MRSA 10^6
  samples failed to reach maximum: 10%
  samples reaching the maximum reading of 65,000 RFU within 2 hours: 90%
  time by which maximum fluorescence level was reached, all samples: ≤ 2 h
MRSA; 50 μM LGX, MRSA positive control at 10^6, 10^5 and 10^3
  time for fluorescence readings to reach a maximum: almost immediately or within an hour
MRSA; 50 μM LGX, MRSA positive control, lower concentrations
  time for fluorescence readings to reach a maximum: 6 h
MRSA; 100 μM LGX, MRSA 10^2
  samples achieving a fluorescence reading of 20,000 within 1 hour: 95%
  samples in which fluorescence reached its upper limits within 4 hours: 40%
MRSA; 100 μM LGX, MRSA 10^2, FIG. 14
  time for fluorescence to reach a maximum: approximately 3 hours
MRSA; 100 μM LGX, MRSA 10^3
  samples in which fluorescence reached its upper limits within 3 hours: 40%
MRSA; 100 μM LGX, MRSA 10^4
  MRSA reaching maximum fluorescence over the 6 hours time period: 90%
  samples in which fluorescence reached its upper limits within 2 hours: 50%
MRSA; 100 μM LGX, MRSA lower concentrations of 10^3 and 10^4 (so in the source)
  isolates failed to reach maximum fluorescence over 6 hours: 40%
MRSA; 100 μM LGX, MRSA positive control, all concentrations (10^4, 10^3 and 10^3 as printed)
  time for fluorescence to reach a maximum: ≤ 3 h
MRSA; MRSA, detection of coagulase positive samples
  LGX SYSTEM: +
[1]; 50 μM LGX, all concentrations of bacteria, coagulase negative staphylocci
  samples above 20,000 fluorescence units after 1 hour: 0%
[1]; 50 μM LGX, coagulase negative strains 10^6, 10^5, 10^3 and 10^2, FIG. 8
  fluorescence over the duration of the experiment: remain consistently low
[1]; 50 μM or 100 μM LGX, coagulase negative staphylococci
  fluorescence response within 1 hour: ≤ 5000 fluorescence units
[1]; 100 μM LGX, coagulase negative strains, FIG. 9
  fluorescence across the 6 hour time period: remained consistently low
